In ChEMBL document CHEMBL5154913, “Phenyl Bis-Sulfonamide Keap1-Nrf2 Protein-Protein Interaction Inhibitors with an Alternative Binding Mode” (J Med Chem, 2022):
In brackets after ≈: the same amount, converted by molar mass. Each block holds one molecule with its values, some of them ahead of it.

What was measured:
[1] = Aqueous solubility of the compound at pH 7.4; format: physicochemical; conditions: aqueous medium
[2] = Permeability of the compound across artificial membrane by IAM binding assay; format: ADME
[3] = test system: ARPE-19; assay: Cytotoxicity against human ARPE-19 cells assessed as reduction in cell viability at 1 uM incubated for 96 hrs by MTT assay relative to control; format: toxicity, cell-based; conditions: arpe-19, 96 h

solubility [1]: 0.348 mg/mL (≈ 519 µM)
Structure (SMILES): COc1ccc(S(=O)(=O)N(CC(=O)O)c2ccc(N(CC(=O)O)S(=O)(=O)c3ccc(OC)cc3)c(OCc3ccccc3)c2)cc1

log K [2]: 1.83
Structure (SMILES): COc1ccc(S(=O)(=O)N(CC(=O)O)c2ccc(N(CC(=O)O)S(=O)(=O)c3ccc(OC)cc3)c(OCc3cccc(OC)c3)c2)cc1

Structure (SMILES): COC(=O)[C@]12CCC(C)(C)C[C@H]1[C@H]1C(=O)C=C3[C@@]4(C)C=C(C#N)C(=O)C(C)(C)[C@@H]4CC[C@@]3(C)[C@]1(C)CC2 [BARDOXOLONE METHYL]
Activity [3]: Toxic
